Like-named read-outs stand apart in the source and are kept apart here.
Key:
[1] = molecular target: human P2X3 receptor (Homo sapiens (Human), UniProt P56373); experiment: Intracellular calcium measurement (FLIPR, Fluo-4) of antagonist activity at human P2X3 receptors; assay type: cell-based; conditions: read-out: hP2X3 IC50
Summary of the method: (§1)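 Cells expressing human P2X3 or P2X2/3, loaded with Fluo-4, preincubated 30 min at 37° C. with compound (1% DMSO final), then challenged with α,β-Me-ATP at its EC80. Peak FLIPR fluorescence over 90 sec gave % response; IC50, maximal inhibition and Hill slope from triplicates.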

[2] = molecular target: human P2X2/3 receptor (Homo sapiens (Human), UniProt P56373+Q9UBL9); experiment: Intracellular calcium measurement (FLIPR, Fluo-4) of antagonist activity at human P2X2/3 receptors; assay type: cell-based
Chain of human P2X2/3 receptor (P56373 whole entry): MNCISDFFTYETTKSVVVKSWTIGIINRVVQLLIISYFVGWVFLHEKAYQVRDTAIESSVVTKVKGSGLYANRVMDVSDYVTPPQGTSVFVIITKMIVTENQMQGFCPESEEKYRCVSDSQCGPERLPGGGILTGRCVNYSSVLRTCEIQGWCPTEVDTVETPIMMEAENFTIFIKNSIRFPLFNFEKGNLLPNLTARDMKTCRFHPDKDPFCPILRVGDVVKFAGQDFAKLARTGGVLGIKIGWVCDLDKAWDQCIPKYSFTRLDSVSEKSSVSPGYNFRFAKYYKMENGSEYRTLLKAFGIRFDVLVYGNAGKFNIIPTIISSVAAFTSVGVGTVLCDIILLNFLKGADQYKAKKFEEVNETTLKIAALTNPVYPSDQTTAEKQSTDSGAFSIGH
Chain of human P2X2/3 receptor (Q9UBL9 whole entry): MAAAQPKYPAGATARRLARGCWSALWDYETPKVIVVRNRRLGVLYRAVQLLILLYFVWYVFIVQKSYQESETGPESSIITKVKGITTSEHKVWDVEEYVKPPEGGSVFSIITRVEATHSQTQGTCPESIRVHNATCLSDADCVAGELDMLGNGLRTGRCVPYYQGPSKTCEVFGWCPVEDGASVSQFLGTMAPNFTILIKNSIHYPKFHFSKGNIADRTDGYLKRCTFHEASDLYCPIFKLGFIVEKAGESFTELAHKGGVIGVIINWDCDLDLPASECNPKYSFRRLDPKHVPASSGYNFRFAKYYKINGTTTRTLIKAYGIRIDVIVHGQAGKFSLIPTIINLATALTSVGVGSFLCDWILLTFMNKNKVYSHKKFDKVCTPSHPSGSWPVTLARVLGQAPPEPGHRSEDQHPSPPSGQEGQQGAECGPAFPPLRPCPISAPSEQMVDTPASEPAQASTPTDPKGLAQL
Summary of the method: as §1

[3] = human P2X3, FLIPR calcium assay, agonist α,β-Me-ATP
[4] = human P2X2/3, FLIPR calcium assay, agonist α,β-Me-ATP, read-out: hP2X2/3 IC50

Chain of human P2X3 receptor (P56373 whole entry): as the sequence (P56373 whole entry) above

Row | Compound | IC50 [1, 3] [nM] | IC50 [2, 4] [nM] | IC50 [1] [nM] | IC50 ([2]; hP2X2/3 IC50 (nM)) [nM]
1 | C[C@@H](NC(=O)c1cc(OC[C@H]2CCOC2)cc(-c2ncc(C3CCC3)s2)c1)c1cnc(C(F)(F)F)nc1 [Example 123, 3-(5-Cyclobutyl-1,3-thiazol-2-yl)-5-[(3S)-tetrahydrofuran-3-ylmethoxy]-N-{(1R)-1-[2-(trifluoromethyl)pyrimidin-5-yl]ethyl}benzamide] | 46 | 164 | – | –
2 | Cc1ncc([C@@H](C)NC(=O)c2cc(OCC3CCOCC3)cc(-c3ncc(C4CCC4)s3)c2)cn1 [Example 124, 3-(5-Cyclobutyl-1,3-thiazol-2-yl)-N-[(1R)-1-(2-methylpyrimidin-5-yl)ethyl]-5-(tetrahydro-2H-pyran-4-ylmethoxy)benzamide] | 27 | 165 | – | –
3 | CCc1cnc(-c2cc(OCC3CCOCC3)cc(C(=O)N[C@H](C)c3cnc(C)nc3)c2)s1 [Example 125, 3-(5-Ethyl-1,3-thiazol-2-yl)-N-[(1R)-1-(2-methylpyrimidin-5-yl)ethyl]-5-(tetrahydro-2H-pyran-4-ylmethoxy)benzamide] | 3 | 27 | – | –
4 | Cc1ncc([C@@H](C)NC(=O)c2cc(OCC3CCOCC3)cc(-c3ncc(C(C)C)s3)c2)cn1 [Example 126, N-[(1R)-1-(2-Methylpyrimidin-5-yl)ethyl]-3-[5-(propan-2-yl)-1,3-thiazol-2-yl]-5-(tetrahydro-2H-pyran-4-ylmethoxy)benzamide] | 34 | 532 | – | –
5 | CCc1cnc(-c2cc(OC3CCOCC3)cc(C(=O)N[C@H](C)c3ccc(C)nn3)c2)s1 [Example 128, 3-(5-Ethyl-1,3-thiazol-2-yl)-N-[(1R)-1-(6-methylpyridazin-3-yl)ethyl]-5-(tetrahydro-2H-pyran-4-yloxy)benzamide] | 10 | 91 | – | –
6 | Cc1ncc([C@@H](C)NC(=O)c2cc(O[C@H]3CCOC3)cc(-c3ncc(C)s3)c2)cn1 [Example 130, N-[(1R)-1-(2-Methylpyrimidin-5-yl)ethyl]-3-(5-methyl-1,3-thiazol-2-yl)-5-[(3S)-tetrahydrofuran-3-yloxy]benzamide] | – | – | 74 | 1350
7 | Cc1ccc(Oc2cc(C(=O)N[C@H](C)c3cnc(C)cn3)cc(-c3ncc(C)s3)c2)cn1 [Example 131, N-[(1R)-1-(5-methylpyrazin-2-yl)ethyl]-3-[(6-methylpyridin-3-yl)oxy]-5-(5-methyl-1,3-thiazol-2-yl)benzamide] | 134 | 730 | – | –
8 | Cc1ccc(CNC(=O)c2cc(O[C@H]3CCOC3)cc(-c3ncc(C)s3)c2)nn1 [Example 133, N-[(6-Methylpyridazin-3-yl)methyl]-3-(5-methyl-1,3-thiazol-2-yl)-5-[(3S)-tetrahydrofuran-3-yloxy]benzamide] | 177 | ≥ 10000 | – | –
9 | Cc1ccc([C@@H](C)NC(=O)c2cc(OC[C@H]3CCOC3)cc(-c3ncc(C4CCC4)s3)c2)nn1 [Example 135, 3-(5-Cyclobutyl-1,3-thiazol-2-yl)-N-[(1R)-1-(6-methylpyridazin-3-yl)ethyl]-5-[(3S)-tetrahydrofuran-3-ylmethoxy]benzamide] | 35 | 209 | – | –
10 | COCCOc1cc(C(=O)N[C@H](C)c2cnc(C)nc2)cc(-c2ncc(C)s2)c1 [Example 136, 3-(2-Methoxyethoxy)-N-[(1R)-1-(2-methylpyrimidin-5-yl)ethyl]-5-(5-methyl-1,3-thiazol-2-yl)benzamide] | 196 | 2780 | – | –
11 | Cc1cnc(-c2cc(OC3CCN(C(=O)OC(C)(C)C)CC3)cc(C(=O)N[C@H](C)c3cnc(C(F)(F)F)nc3)c2)s1 [Example 137, tert-Butyl 4-[3-(5-methyl-1,3-thiazol-2-yl)-5-({(1R)-1-[2-(trifluoromethyl)pyrimidin-5-yl]ethyl}carbamoyl)phenoxy]piperidine-1-carboxylate] | – | 328 | 26 | –
12 | C#CCOc1cc(C(=O)N[C@@H](C)c2cnc(C(F)(F)F)nc2)cc(-c2ncc(C)s2)c1 [Example 144, 3-(5-Methyl-1,3-thiazol-2-yl)-5-(prop-2-yn-1-yloxy)-N-{(1S)-1-[2-(trifluoromethyl)pyrimidin-5-yl]ethyl}benzamide] | 825 | ≥ 10000 | – | –
13 | Cc1cnc(-c2cc(OC3CC4(C3)CN(C(=O)OC(C)(C)C)C4)cc(C(=O)N[C@H](C)c3cnc(C(F)(F)F)nc3)c2)s1 [Example 146, tert-butyl 6-[3-(5-methyl-1,3-thiazol-2-yl)-5-({(1R)-1-[2-(trifluoromethyl)pyrimidin-5-yl]ethyl}carbamoyl)phenoxy]-2-azaspiro[3.3]heptane-2-carboxylate] | 45 | 159 | – | –
14 | Cc1cnc(-c2cc(OC34CCN(CC3)CC4)cc(C(=O)N[C@H](C)c3cnc(C(F)(F)F)nc3)c2)s1 [Example 149] | 21 | 936 | – | –

Second part, led by results:

Row | IC50 [1, 3] [nM] | IC50 [2, 4] [nM] | Compound | IC50 [1] [nM] | IC50 ([2]; hP2X2/3 IC50 (nM)) [nM]
15 | 3 | 33 | CCc1cnc(-c2cc(OC3CCOCC3)cc(C(=O)N[C@H](C)c3cnc(C(F)(F)F)nc3)c2)s1 [Example 129, 3-(5-Ethyl-1,3-thiazol-2-yl)-5-(tetrahydro-2H-pyran-4-yloxy)-N-{(1R)-1-[2-(trifluoromethyl)pyrimidin-5-yl]ethyl}benzamide] | – | –
16 | 75 | 2050 | Cc1cnc(-c2cc(O[C@H]3CCOC3)cc(C(=O)NC(C)c3ncc(F)cc3Cl)c2)s1 (stereo partly drawn) [Example 132, N-[1-(3-Chloro-5-fluoropyridin-2-yl)ethyl]-3-(5-methyl-1,3-thiazol-2-yl)-5-[(3S)-tetrahydrofuran-3-yloxy]benzamide] | – | –
17 | 15 | 210 | Cc1cnc(-c2cc(O[C@H]3CCOC3)cc(C(=O)NC(C)c3ncc(Cl)cc3F)c2)s1 (stereo partly drawn) [Example 134, N-[1-(5-Chloro-3-fluoropyridin-2-yl)ethyl]-3-(5-methyl-1,3-thiazol-2-yl)-5-[(3S)-tetrahydrofuran-3-yloxy]benzamide] | – | –
18 | 8 | 962 | Cc1cnc(-c2cc(OC3CCN(C)CC3)cc(C(=O)N[C@H](C)c3cnc(C(F)(F)F)nc3)c2)s1 [Example 139, 3-[(1-Methylpiperidin-4-yl)oxy]-5-(5-methyl-1,3-thiazol-2-yl)-N-{(1R)-1-[2-(trifluoromethyl)pyrimidin-5-yl]ethyl}benzamide] | – | –
19 | 33 | 1300 | Cc1cnc(-c2cc(OC3CCN(C(C)C)CC3)cc(C(=O)N[C@H](C)c3cnc(C(F)(F)F)nc3)c2)s1 [Example 140, 3-(5-Methyl-1,3-thiazol-2-yl)-5-{[1-(propan-2-yl)piperidin-4-yl]oxy}-N-{(1R)-1-[2-(trifluoromethyl)pyrimidin-5-yl]ethyl}benzamide] | – | –
20 | 43 | 2200 | Cc1cnc(-c2cc(O[C@@H]3CCN(C)C3)cc(C(=O)N[C@H](C)c3cnc(C(F)(F)F)nc3)c2)s1 [Example 141, 3-{[(3R)-1-Methylpyrrolidin-3-yl]oxy}-5-(5-methyl-1,3-thiazol-2-yl)-N-{(1R)-1-[2-(trifluoromethyl)pyrimidin-5-yl]ethyl}benzamide] | – | –
21 | 6 | 222 | Cc1cnc(-c2cc(O[C@H]3CCN(C)C3)cc(C(=O)N[C@H](C)c3cnc(C(F)(F)F)nc3)c2)s1 [Example 142, 3-{[(3S)-1-Methylpyrrolidin-3-yl]oxy}-5-(5-methyl-1,3-thiazol-2-yl)-N-{(1R)-1-[2-(trifluoromethyl)pyrimidin-5-yl]ethyl}benzamide] | – | –
22 | 84 | 3050 | Cc1cnc(-c2cc(OC3CN(C)C3)cc(C(=O)N[C@H](C)c3cnc(C(F)(F)F)nc3)c2)s1 [Example 143, 3-[(1-Methylazetidin-3-yl)oxy]-5-(5-methyl-1,3-thiazol-2-yl)-N-{(1R)-1-[2-(trifluoromethyl)pyrimidin-5-yl]ethyl}benzamide] | – | –
23 | 271 | 4460 | Cc1cnc(-c2cc(OC3CCOCC3)cc(C(=O)N[C@@H](C)c3cnc(C(F)(F)F)nc3)c2)s1 [Example 145, 3-(5-Methyl-1,3-thiazol-2-yl)-5-(tetrahydro-2H-pyran-4-yloxy)-N-{(1S)-1-[2-(trifluoromethyl)pyrimidin-5-yl]ethyl}benzamide] | – | –
24 | 6 | 132 | Cc1cnc(-c2cc(O[C@@H]3CCOC3)cc(C(=O)N[C@H](C)c3cnc(C(F)(F)F)cn3)c2)s1 [Example 147, 3-(5-methyl-1,3-thiazol-2-yl)-5-[(3R)-tetrahydrofuran-3-yloxy]-N-{(1R)-1-[5-(trifluoromethyl)pyrazin-2-yl]ethyl}benzamide] | – | –
25 | 33 | 794 | Cc1cnc(-c2cc(OC3COC3)cc(C(=O)N[C@H](C)c3ccc(C(F)(F)F)nc3)c2)s1 [Example 148, 3-(5-methyl-1,3-thiazol-2-yl)-5-(oxetan-3-yloxy)-N-{(1R)-1-[6-(trifluoromethyl)pyridin-3-yl]ethyl}benzamide] | – | –
26 | 12 | 83 | CC(=O)N1CCC(Oc2cc(C(=O)N[C@H](C)c3cnc(C(F)(F)F)nc3)cc(-c3ncc(C)s3)c2)CC1 [Example 150, 3-[(1-acetylpiperidin-4-yl)oxy]-5-(5-methyl-1,3-thiazol-2-yl)-N-{(1R)-1-[2-(trifluoromethyl)pyrimidin-5-yl]ethyl}benzamide] | – | –
27 | 31 | 333 | Cc1cnc(-c2cc(O[C@H]3CCOC3)cc(C(=O)N[C@H](C)c3cnc(C(F)F)nc3)c2)s1 [Example 151, N-{(1R)-1-[2-(difluoromethyl)pyrimidin-5-yl]ethyl}-3-(5-methyl-1,3-thiazol-2-yl)-5-[(3S)-tetrahydrofuran-3-yloxy]benzamide] | – | –
28 | 45 | 523 | Cc1cnc(-c2cc(OC3COC3)cc(C(=O)N[C@H](C)c3cnc(C(F)F)nc3)c2)s1 [Example 152, N-{(1R)-1-[2-(difluoromethyl)pyrimidin-5-yl]ethyl}-3-(5-methyl-1,3-thiazol-2-yl)-5-(oxetan-3-yloxy)benzamide] | – | –
